The text below walks through data of patent US12466812B2, “Pyridinyltriazine derivative having protein kinase inhibitory activity, and pharmaceutical composition for preventing, ameliorating, or treating cancer comprising same” (KOREA INSTITUTE OF SCIENCE AND TECHNOLOGY, priority 2019, dated 2025).

The target in one data set is CDK4 (Homo sapiens, UniProt P11802). In words: Kinase panel biochemical assay. Conditions: single concentration of 1 μM; panel of 369 kinases; read-out: kinase activity inhibited (%), CDK4. How it is done:
(§1) In order to measure the inhibitory activity (%) against protein kinases of the compounds of the present invention, biochemical assays were performed on a full kinase panel composed of 369 kinases.

For the next data set, the target named is CDK6 (Homo sapiens, UniProt Q00534). Kind of data set: Kinase panel biochemical assay. To be noted: single concentration of 1 μM; panel of 369 kinases; read-out: kinase activity inhibited (%), CDK6. As for the experimental part:
as §1

The target in another data set is CLK2 (Homo sapiens, UniProt P49760). In words: Kinase panel biochemical assay. To be noted: single concentration of 1 μM; panel of 369 kinases; read-out: kinase activity inhibited (%), CLK2. As for the experimental part: as §1
The next data set addresses FGFR2 (Homo sapiens, UniProt P21802). In words: Kinase panel biochemical assay. To be noted: single concentration of 1 μM; panel of 369 kinases; read-out: kinase activity inhibited (%), FGFR2. As for the experimental part: as §1
The next data set has as its target FGFR3 (Homo sapiens, UniProt P22607). Kind of data set: Kinase panel biochemical assay. Conditions: single concentration of 1 μM; panel of 369 kinases; read-out: kinase activity inhibited (%), FGFR3. How it is done:
as §1

Another data set has as its target FGFR4 (Homo sapiens, UniProt P22455). In words: Kinase panel biochemical assay. To be noted: single concentration of 1 μM; panel of 369 kinases; read-out: kinase activity inhibited (%), FGFR4. How it is done:
as §1

For another data set, the target named is IRAK1 (Homo sapiens, UniProt P51617). In words: Kinase panel biochemical assay. Conditions: single concentration of 1 μM; panel of 369 kinases; read-out: kinase activity inhibited (%), IRAK1. As for the experimental part: as §1
A further data set has as its target LCK (Homo sapiens, UniProt P06239). In words: Kinase panel biochemical assay. Conditions: single concentration of 1 μM; panel of 369 kinases; read-out: kinase activity inhibited (%), LCK. How it is done:
as §1

For a further data set, the target named is LYN (Homo sapiens, UniProt P07948). Kind of data set: Kinase panel biochemical assay. Conditions: single concentration of 1 μM; panel of 369 kinases; read-out: kinase activity inhibited (%), LYN. As for the experimental part:
as §1

For the next data set, the target named is MPSK1 (Homo sapiens, UniProt O75716). In words: Kinase panel biochemical assay. To be noted: single concentration of 1 μM; panel of 369 kinases; read-out: kinase activity inhibited (%), MPSK1. How it is done: as §1
Chain of MPSK1 (O75716 whole entry): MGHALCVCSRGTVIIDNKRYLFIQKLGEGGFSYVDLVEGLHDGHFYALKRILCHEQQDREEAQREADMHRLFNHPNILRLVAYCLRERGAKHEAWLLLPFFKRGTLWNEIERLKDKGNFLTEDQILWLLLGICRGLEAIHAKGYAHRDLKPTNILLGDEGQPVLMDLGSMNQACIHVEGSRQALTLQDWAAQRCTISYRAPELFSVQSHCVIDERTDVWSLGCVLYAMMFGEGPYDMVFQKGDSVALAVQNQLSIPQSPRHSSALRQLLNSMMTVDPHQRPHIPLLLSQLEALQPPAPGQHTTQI
The target of another data set is PCTAIRE1 (Homo sapiens, UniProt Q00536). In words: Kinase panel biochemical assay. To be noted: single concentration of 1 μM; panel of 369 kinases; read-out: kinase activity inhibited (%), PCTAIRE1. As for the experimental part:
as §1

The next data set deals with PCTAIRE2 (Homo sapiens, UniProt Q00537). Kind of data set: Kinase panel biochemical assay. To be noted: single concentration of 1 μM; panel of 369 kinases; read-out: kinase activity inhibited (%), PCTAIRE2. How it is done:
as §1

The next data set has as its target PHKg1 (Homo sapiens, UniProt Q16816). Kind of data set: Kinase panel biochemical assay. Conditions: single concentration of 1 μM; panel of 369 kinases; read-out: kinase activity inhibited (%), PHKg1. How it is done:
as §1

A further data set deals with ROS (Homo sapiens, UniProt P08922). Kind of data set: Kinase panel biochemical assay. Conditions: single concentration of 1 μM; panel of 369 kinases; read-out: kinase activity inhibited (%), ROS. As for the experimental part: as §1
A further data set relates to AN3-CA. In words: Pan-FGFR mutant cellular activity. The class given is cell-based. To be noted: Homo sapiens, mutant cell, Table 4, read-out: GI50, AN3-CA (breast cancer cell line). How it is done:
(§2) The inhibitory activity against pan-FGFR mutants of the compounds synthesized in Examples 1, 8, 13, 22, and 24 was measured, the inhibitory activity on each of enzymatic activity and cellular activity was evaluated, and the results are shown in Tables 3 and 4 below.

In data set [1] the test system is J82 (bladder cancer cell line). Kind of data set: Pan-FGFR mutant cellular activity. The class given is cell-based. Conditions: Table 4. As for the experimental part: as §2
Data set [2] has as its system KMS-11 (myeloma cell line). Kind of data set: Pan-FGFR mutant cellular activity. The class given is cell-based. To be noted: Homo sapiens, Table 4. As for the experimental part:
as §2

The subject of data set [3] is UMUC3 (bladder cancer cell line). Kind of data set: Pan-FGFR mutant cellular activity. The class given is cell-based. Conditions: Homo sapiens, Table 4. As for the experimental part:
as §2

The next data set concerns the target T1, CYP1A2 (Homo sapiens, UniProt P05177).
T1 sequence (P05177 1-516): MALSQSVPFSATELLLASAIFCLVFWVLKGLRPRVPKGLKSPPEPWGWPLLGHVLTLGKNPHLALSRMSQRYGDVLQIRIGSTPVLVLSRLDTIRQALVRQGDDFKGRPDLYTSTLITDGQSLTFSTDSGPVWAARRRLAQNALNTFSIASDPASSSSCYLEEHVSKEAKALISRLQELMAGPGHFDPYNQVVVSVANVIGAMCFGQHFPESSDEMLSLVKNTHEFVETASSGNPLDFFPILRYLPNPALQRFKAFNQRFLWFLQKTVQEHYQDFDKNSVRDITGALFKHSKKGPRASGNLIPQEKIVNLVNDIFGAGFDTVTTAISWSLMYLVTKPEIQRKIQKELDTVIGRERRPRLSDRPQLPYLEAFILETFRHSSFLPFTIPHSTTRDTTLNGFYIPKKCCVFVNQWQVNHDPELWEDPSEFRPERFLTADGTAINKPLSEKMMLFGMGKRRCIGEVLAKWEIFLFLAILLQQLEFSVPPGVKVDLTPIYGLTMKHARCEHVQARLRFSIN
Kind of data set: Inhibitory activity against CYP metabolic enzyme. The class given is in vitro ADME. How it is done: (§3) In order to determine whether or not there is a possibility that the compounds synthesized in Examples 1, 22, and 24 of the present invention can cause side effects of drug interaction, the rate (%) of inhibition against 5 major metabolic enzymes (CYP1A2, CYP2C9, CYP2C19, CYP2D6, and CYP3A4) among CYPs (cytochrome P450), which are enzymes involved in oxidative metabolism of drugs, was measured. […] That is, it can be seen that the compound of the present invention has a low possibility of causing side effects of drug interaction.

The target in a further data set is CYP2C19 (Homo sapiens, UniProt P33261). In words: Inhibitory activity against CYP metabolic enzyme. Format: in vitro ADME. How it is done:
as §3

Another data set deals with CYP2C9 (Homo sapiens, UniProt P11712). Kind of data set: Inhibitory activity against CYP metabolic enzyme. The class given is in vitro ADME. As for the experimental part:
as §3

The next data set deals with CYP2D6 (Homo sapiens, UniProt P10635). Kind of data set: Inhibitory activity against CYP metabolic enzyme. Format: in vitro ADME. As for the experimental part: as §3
In the next data set the target is CYP3A4 (Homo sapiens, UniProt P08684). In words: Inhibitory activity against CYP metabolic enzyme. The class given is in vitro ADME. How it is done:
as §3

Chain of FGFR4 (P22455 22-802): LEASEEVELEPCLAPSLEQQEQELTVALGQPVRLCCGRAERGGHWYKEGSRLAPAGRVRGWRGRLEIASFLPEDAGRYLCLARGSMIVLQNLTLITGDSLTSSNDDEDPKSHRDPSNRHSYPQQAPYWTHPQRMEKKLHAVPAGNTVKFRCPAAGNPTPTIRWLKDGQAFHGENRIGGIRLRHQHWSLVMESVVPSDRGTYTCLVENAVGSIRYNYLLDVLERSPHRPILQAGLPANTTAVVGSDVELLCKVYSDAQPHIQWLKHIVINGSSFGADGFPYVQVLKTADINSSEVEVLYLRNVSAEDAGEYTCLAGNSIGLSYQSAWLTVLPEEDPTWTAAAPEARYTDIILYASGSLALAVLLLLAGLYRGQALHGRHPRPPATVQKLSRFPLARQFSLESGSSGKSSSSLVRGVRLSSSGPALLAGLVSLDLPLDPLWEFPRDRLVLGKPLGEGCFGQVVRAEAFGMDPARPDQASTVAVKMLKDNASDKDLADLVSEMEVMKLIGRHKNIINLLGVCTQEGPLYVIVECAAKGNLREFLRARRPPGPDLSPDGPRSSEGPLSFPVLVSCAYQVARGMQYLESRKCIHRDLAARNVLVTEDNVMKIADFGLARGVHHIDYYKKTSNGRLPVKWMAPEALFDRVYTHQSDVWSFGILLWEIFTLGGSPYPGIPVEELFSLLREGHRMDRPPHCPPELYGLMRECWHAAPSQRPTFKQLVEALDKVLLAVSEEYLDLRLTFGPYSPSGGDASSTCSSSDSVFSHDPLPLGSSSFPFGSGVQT
Chain of FGFR3 (P22607 23-806): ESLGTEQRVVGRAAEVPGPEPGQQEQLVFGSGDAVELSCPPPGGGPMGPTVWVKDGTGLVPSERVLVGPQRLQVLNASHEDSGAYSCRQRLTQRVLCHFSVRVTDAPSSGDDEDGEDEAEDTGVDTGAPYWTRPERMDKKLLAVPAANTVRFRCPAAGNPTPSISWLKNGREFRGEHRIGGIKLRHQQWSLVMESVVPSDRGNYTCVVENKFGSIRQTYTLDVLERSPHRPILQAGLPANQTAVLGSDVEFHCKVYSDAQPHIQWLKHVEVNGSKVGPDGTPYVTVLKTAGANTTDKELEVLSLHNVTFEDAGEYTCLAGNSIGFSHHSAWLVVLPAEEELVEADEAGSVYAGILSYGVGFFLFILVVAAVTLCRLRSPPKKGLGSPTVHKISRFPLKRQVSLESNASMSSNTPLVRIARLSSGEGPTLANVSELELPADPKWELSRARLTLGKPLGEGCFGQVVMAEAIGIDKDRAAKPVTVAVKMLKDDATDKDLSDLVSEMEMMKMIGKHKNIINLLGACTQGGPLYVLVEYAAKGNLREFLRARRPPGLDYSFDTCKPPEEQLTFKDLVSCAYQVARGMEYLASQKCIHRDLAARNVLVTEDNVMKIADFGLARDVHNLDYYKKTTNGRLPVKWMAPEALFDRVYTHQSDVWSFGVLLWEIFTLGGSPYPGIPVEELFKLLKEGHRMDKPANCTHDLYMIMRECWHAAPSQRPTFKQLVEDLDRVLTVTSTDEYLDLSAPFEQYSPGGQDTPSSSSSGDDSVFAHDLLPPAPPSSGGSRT
Chain of FGFR2 (P21802 22-821): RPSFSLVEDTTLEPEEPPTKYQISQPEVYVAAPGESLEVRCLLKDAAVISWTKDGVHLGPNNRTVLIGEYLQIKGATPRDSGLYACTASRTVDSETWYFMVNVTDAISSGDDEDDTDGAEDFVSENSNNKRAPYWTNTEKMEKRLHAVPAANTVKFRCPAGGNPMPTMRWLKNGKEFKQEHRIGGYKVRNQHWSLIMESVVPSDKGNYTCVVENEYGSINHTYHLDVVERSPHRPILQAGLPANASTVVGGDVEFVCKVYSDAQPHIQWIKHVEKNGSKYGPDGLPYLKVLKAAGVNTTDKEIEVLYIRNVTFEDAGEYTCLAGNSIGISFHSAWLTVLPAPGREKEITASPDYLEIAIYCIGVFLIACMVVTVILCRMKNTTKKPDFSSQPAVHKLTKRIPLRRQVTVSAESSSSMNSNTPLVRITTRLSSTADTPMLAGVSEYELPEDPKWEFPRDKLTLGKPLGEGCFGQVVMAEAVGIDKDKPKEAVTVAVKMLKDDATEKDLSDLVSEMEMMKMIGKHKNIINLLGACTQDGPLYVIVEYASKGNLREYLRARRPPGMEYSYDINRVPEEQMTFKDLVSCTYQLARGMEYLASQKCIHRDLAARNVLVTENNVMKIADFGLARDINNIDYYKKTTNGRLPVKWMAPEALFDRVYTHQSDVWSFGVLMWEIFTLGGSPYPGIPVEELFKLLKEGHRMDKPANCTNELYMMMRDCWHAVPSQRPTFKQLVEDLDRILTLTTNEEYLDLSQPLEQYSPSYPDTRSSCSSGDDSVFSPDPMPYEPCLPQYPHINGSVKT
Chain of PCTAIRE2 (Q00537 whole entry): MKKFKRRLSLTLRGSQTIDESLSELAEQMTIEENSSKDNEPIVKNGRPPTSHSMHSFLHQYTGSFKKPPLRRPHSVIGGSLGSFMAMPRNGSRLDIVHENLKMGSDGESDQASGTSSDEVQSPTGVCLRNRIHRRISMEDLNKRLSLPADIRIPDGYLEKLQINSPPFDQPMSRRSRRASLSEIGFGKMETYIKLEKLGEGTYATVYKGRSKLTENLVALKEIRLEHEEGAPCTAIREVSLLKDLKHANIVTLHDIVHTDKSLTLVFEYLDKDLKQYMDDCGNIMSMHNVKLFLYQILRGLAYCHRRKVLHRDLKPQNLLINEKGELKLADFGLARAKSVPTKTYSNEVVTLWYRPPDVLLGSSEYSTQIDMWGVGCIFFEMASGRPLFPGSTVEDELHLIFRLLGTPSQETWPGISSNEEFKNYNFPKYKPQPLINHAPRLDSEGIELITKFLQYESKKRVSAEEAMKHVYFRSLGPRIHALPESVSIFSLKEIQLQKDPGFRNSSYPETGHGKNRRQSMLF
Chain of PCTAIRE2 (Q8ND76 whole entry partner): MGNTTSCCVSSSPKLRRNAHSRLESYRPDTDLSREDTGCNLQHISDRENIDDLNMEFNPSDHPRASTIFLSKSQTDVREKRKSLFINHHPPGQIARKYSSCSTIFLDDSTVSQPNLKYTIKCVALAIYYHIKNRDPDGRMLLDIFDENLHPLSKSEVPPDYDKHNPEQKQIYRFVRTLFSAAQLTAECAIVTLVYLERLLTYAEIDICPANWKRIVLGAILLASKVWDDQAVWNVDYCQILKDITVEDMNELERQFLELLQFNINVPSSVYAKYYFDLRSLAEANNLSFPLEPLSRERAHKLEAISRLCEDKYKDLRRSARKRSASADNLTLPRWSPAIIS
Chain of CDK4 (P11802 whole entry): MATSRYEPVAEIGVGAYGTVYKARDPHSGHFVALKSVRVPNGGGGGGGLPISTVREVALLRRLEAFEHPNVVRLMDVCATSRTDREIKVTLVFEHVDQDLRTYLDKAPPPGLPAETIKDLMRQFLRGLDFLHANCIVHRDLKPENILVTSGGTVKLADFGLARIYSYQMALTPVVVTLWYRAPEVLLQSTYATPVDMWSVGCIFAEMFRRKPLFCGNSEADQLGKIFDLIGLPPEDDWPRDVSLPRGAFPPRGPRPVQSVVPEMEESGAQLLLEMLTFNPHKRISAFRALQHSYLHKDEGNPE
Chain of CDK4 (P24385 whole entry partner): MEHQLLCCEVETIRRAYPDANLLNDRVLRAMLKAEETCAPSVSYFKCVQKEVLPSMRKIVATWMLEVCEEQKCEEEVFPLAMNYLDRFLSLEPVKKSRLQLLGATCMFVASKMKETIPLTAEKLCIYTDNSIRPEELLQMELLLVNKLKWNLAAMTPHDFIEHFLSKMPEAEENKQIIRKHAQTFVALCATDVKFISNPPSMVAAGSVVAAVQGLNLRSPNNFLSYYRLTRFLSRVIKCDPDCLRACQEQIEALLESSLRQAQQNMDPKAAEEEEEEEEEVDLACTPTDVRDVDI
Chain of PCTAIRE1 (Q00536 whole entry): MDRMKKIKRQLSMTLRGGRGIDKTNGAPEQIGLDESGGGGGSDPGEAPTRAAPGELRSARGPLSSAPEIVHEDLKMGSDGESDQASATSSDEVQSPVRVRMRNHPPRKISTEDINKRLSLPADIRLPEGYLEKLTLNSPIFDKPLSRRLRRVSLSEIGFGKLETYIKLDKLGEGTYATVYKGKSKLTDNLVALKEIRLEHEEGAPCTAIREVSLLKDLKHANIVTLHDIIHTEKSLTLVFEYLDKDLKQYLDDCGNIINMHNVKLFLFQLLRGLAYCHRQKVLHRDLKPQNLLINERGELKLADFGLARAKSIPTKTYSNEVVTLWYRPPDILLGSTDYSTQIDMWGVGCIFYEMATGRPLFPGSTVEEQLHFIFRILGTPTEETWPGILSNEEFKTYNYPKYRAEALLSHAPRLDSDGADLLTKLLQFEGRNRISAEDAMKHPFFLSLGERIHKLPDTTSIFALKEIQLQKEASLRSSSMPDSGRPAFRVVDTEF
Chain of PCTAIRE1 (Q8ND76 whole entry partner): as the sequence (Q8ND76 whole entry partner) above

Regarding `CCN1CCN(c2ccc(Nc3ncnc(-c4cccnc4Nc4c(Cl)c(OC)cc(OC)c4Cl)n3)cc2)CC1` [Example 1], the inhibition at 1 µM on CDK4, on CDK6, on CLK2, on FGFR2, at FGFR3 and at FGFR4 was not below 90% throughout. In addition, the inhibition at 1 µM at IRAK1, on LCK, on LYN, at MPSK1, on PCTAIRE1 and on PCTAIRE2 was not below 90% throughout. For the same compound, the inhibition at 1 µM at PHKg1 and at ROS was not below 90% in each case. The GI50 in the data set with AN3-CA was less than 1000 nM; in data set [1], 1000 to 10000 nM; in data set [2] it was less than 1000 nM; in data set [3], 1000 to 10000 nM. Besides, the “rate (%) of inhibition, CYP1A2” value on CYP1A2 came out at 71.4%. Further, the “rate (%) of inhibition, CYP2C19” value at CYP2C19 was 26.7%. In addition, the “rate (%) of inhibition, CYP2C9” value at CYP2C9 amounted to 70.2%. For the same compound, the “rate (%) of inhibition, CYP2D6” value on CYP2D6 is 80.9%. Also, the “rate (%) of inhibition, CYP3A4” value on CYP3A4 was found to be 17.0%.
